Key:
[1] = n-octanol-aqueous medium partition coefficient pH correlation; type: physicochemical
Description: The n-octanol-aqueous medium partition coefficients of the compound are readily measured in accordance with standard practice in the prior art. Briefly, such measurements include the steps of dissolving a known amount of the compound in an aqueous buffer of a predetermined pH and extracting the buffer solution with a known amount of n-octanol until an equilibrium of distribution of the compound between the aqueous and n-octanol phases occurs. The concentration of the compound in both phases is then measured by suitable analytical means, such as ultraviolet spectrophotometry; the partition coefficient being the ratio of the two measured concentrations.
For the purposes of evaluating a plurality of radioactive compounds for use in the novel method of the present invention, the n-octanol-aqueous medium partition coefficients of the compounds were measured in the following manner. The radioactive compound was mixed with 1.0 ml of n-octanol and 1.0 ml of buffer of the desired predetermined pH. The radioactivity of this mixture was counted, and the mixture was placed in a water bath shaker at 37° C. for 2 hours. After centrifugation at 3,000 rpm for 5 minutes, the n-octanol layer was separated and its radioactivity counted. The partition coefficient of the compound was calculated by the following equation: [formula]

[2] = Organ distribution of Se-75 labeled compound in rats after intravenous injection; type: in vivo, Spraque-Dawley male rats; details: rat, i.v.; for % dose/organ, blood: blood assumed 7% of body weight; for % dose/organ, muscle: muscle assumed 40% of body weight
Description: FIGS. 2 and 3 respectively show the relative concentration of Se-75 labeled di-β-(piperidinoethyl)-selenide and di-β-(morpholinoethyl)-selenide in rat brains at several time intervals after an intravenous injection of a dose of the respective compounds into the rat. As is shown in FIG. 3, and also in Table 4, two minutes after an intravenous injection of Se-75 labeled di-β-(morpholinoethyl)-selenide, the brain uptake of the radiopharmaceutical compound reaches a value of 3.19%. […] The terms uptake, % uptake or % dose are used to describe the percentage of the radiopharmaceutical compound contained in a given organ or tissue as compared to the total initial dose. The numerical values in FIGS. 2 and 3 and Tables 3 and 4 represent such percentages.
Studies of distribution of the radiopharmaceutical compounds of the present invention in rats, the results of which are reflected in FIGS. 2 and 3 and Tables 3 and 4, were conducted according to standard practice in the pharmacological sciences, and therefore need not be described here in great detail. Nevertheless, for the sake of complete understanding of the present invention, some experimental details of these studies are briefly described below:
Spraque-Dawley male rats (220-300 g) were injected intravenously (femoral vein) with a 0.2 ml solution (0.5-2 micro Ci) under light ether anaesthesia. At different time periods after the injection, the animals were sacrificed and organs of interest were excised and counted in a well counter. Percent dose was estimated by comparison of tissue counts to suitably diluted aliquots of the injected material. Total activities in blood and muscle were calculated by assuming that they are 7% and 40% of the body weight respectively.

[3] = cited from earlier work

## C1CCN(CC[Se]CCN2CCCCC2)CC1 [di-β-(piperidinoethyl)-selenide]
[1]; n-octanol-aqueous medium, pH 6.6 to 7.6
  partition coefficient pH dependence (in words): much higher partition coefficient pH dependence
[1]; pH 7.4, morpholinoethyl vs piperidinoethyl selenide
  partition coefficient / lipid solubility at the pH of the blood (in words): less lipid soluble at the pH of the blood
[2]
  penetration of the blood brain barrier (in words): capable of penetrating the blood brain barrier
[2]; 2 min
  % dose/organ, heart: 3.04%
  % dose/organ, kidney: 7.14%
  % dose/organ, liver: 12.0%
  % dose/organ, lung(2): 20.0%
  % dose/organ, pancreas: 0.62%
  % dose/organ, spleen: 0.51%
  % dose/organ, blood: 4.58%
  % dose/organ, muscle: 7.39%
[2]; 2 min (morpholinoethyl: average of 5 samples)
  % dose/organ, brain (brain uptake): 1.09%
[2]; 30 min
  % dose/organ, brain (brain uptake): 1.49%
  % dose/organ, heart: 0.89%
  % dose/organ, kidney: 9.21%
  % dose/organ, liver: 14.3%
  % dose/organ, lung(2): 2.83%
  % dose/organ, pancreas: 1.42%
  % dose/organ, spleen: 1.31%
  % dose/organ, blood: 0.87%
  % dose/organ, muscle: 13.4%
[2]; 1 hr
  % dose/organ, brain (brain uptake): 1.53%
  % dose/organ, heart: 0.35%
  % dose/organ, kidney: 4.43%
  % dose/organ, liver: 16.6%
  % dose/organ, lung(2): 1.92%
  % dose/organ, pancreas: 1.07%
  % dose/organ, spleen: 0.90%
  % dose/organ, blood: 0.75%
  % dose/organ, muscle: 16.1%
[2]; 2 hr
  % dose/organ, brain (brain uptake): 1.63%
  % dose/organ, heart: 0.19%
  % dose/organ, kidney: 2.89%
  % dose/organ, liver: 15.9%
  % dose/organ, lung(2): 0.85%
  % dose/organ, pancreas: 0.84%
  % dose/organ, spleen: 1.03%
  % dose/organ, blood: 0.65%
  % dose/organ, muscle: 12.0%
[2]; 4 hr
  % dose/organ, brain (brain uptake): 1.32%
  % dose/organ, heart: 0.16%
  % dose/organ, kidney: 1.53%
  % dose/organ, liver: 16.0%
  % dose/organ, lung(2): 0.82%
  % dose/organ, pancreas: 0.60%
  % dose/organ, spleen: 0.61%
  % dose/organ, blood: 0.59%
  % dose/organ, muscle: 11.9%
[2]; 6 hr
  % dose/organ, brain (brain uptake): 1.18%
  % dose/organ, kidney: 0.64%
  % dose/organ, liver: 7.66%
  % dose/organ, spleen: 0.34%
  % dose/organ, blood: 0.51%
  % dose/organ, muscle: 11.5%
[2]; 24 hr
  % dose/organ, brain (brain uptake): 0.91%
  % dose/organ, heart: 0.03%
  % dose/organ, kidney: 0.38%
  % dose/organ, liver: 4.79%
  % dose/organ, lung(2): 0.31%
  % dose/organ, pancreas: 0.11%
  % dose/organ, spleen: 0.10%
  % dose/organ, blood: 0.20%
  % dose/organ, muscle: 2.81%
[2]; 3 day
  % dose/organ, brain (brain uptake): 0.16%
  % dose/organ, kidney: 0.12%
  % dose/organ, liver: 1.72%
  % dose/organ, spleen: 0.01%
  % dose/organ, blood: 0.08%
  % dose/organ, muscle: 0.40%

## Cc1c(I)c(=O)n(-c2ccccc2)n1C [iodoantipyrine]
[3]; in vivo
  penetration of brain tissue (in words): able to penetrate brain tissue
[3]; within one hour after penetration
  retention in brain (in words): almost completely leaves the brain by diffusion

— patent US4363793A, “Diagnostic radiopharmaceuticals for localization in target tissues exhibiting a regional pH shift relative to surrounding tissues” (State University of New York, priority 1980, dated 1982)
